Measured values taken from a melting point compilation (Tetko et al.; mined from patent text by program, amines drawn as free bases though some values may be those of a salt).

Row | melting point | SMILES
1 | 109 to 111 °C | COC(=O)c1c(Br)ccc2nn(C)c(C)c12
2 | 129 to 130 °C | CCOC(=O)Cc1csc(NS(=O)(=O)c2ccccc2)n1
3 | 210 to 212 °C | COc1ccc(-c2cc(N3CCCCC3)c(C#N)c3c2-c2ccccc2C3=O)cc1
4 | 141 to 142 °C | CN(C)C1CCCN(C(=O)c2n[nH]c3ccccc23)C1 (centres undefined)
5 | 160 to 162 °C | CC(=O)OC1CSC(Oc2cncc(-c3ccc(C)cc3)c2)C(OC(C)=O)C1OC(C)=O (centres undefined)
6 | 40 °C | CCOc1cccc(C)c1S(=O)(=O)N=C=O
7 | 144 to 147 °C | COc1ccc(N2CCN(C3CCN(Cc4ccccc4)CC3)C2=O)cc1
8 | 205 to 207 °C | CNc1nc(-c2cccc(NC(=O)C3CC3)c2)c2cc(OC)c(OC)cc2n1
9 | 163 to 164 °C | CCO/C=C/C(=O)Nc1ccc(Br)cc1C
10 | 104 to 105 °C | COc1ccc(C2=NN(CCCCCCN3C(=O)c4ccccc4C3=O)C(=O)[C@H]3CC=CC[C@@H]23)cc1OC (relative stereo)
11 | 200 to 201 °C | O=C1Nc2ccc3sccc3c2C1=O
12 | 183 °C | Cc1c[nH]c(-c2nc([C@H]3CCCN(C(=O)c4ccc(F)cc4)C3)no2)c1
13 | 106 to 108 °C | COc1ccc2cc([C@H](C)C(=O)NN)ccc2c1
14 | 146 to 150 °C | CCCCCCCCCCC(=O)Nc1ccn(C2OC(CO)C(O)C2O)c(=O)n1 (centres undefined)
15 | 215 to 216 °C | NC(Cc1ccccc1)C(=O)Nc1nc2ccccc2c(=O)o1 (centres undefined)
16 | 112 to 114 °C | Cc1cc(-c2cc(C(F)(F)F)nn2-c2ccc(S(N)(=O)=O)cc2)ccc1-c1cocn1
17 | 113 to 114 °C | CCCN(Cc1cccc(-c2noc(C)n2)c1)C(=O)Nc1ccc(Br)cc1
18 | 109 to 111 °C | CCOC(=O)c1ccc(C(OC(c2ccc(C(=O)OCC)cc2)c2ccc3c(c2)C(C)(C)CCC3(C)C)c2ccc3c(c2)C(C)(C)CCC3(C)C)cc1 (centres undefined)

Row | melting point | SMILES
19 | 148 to 150 °C | CC(=O)N1CCC(c2nn(-c3ccc(C(F)(F)F)cc3)c3ccccc23)CC1
20 | 57 to 59 °C | CCCCCCCCCCc1nnn[nH]1
21 | 110 °C | C#Cc1cn(C2CC(O)C(COC(c3ccccc3)(c3ccccc3)c3ccccc3)O2)c(=O)[nH]c1=O (centres undefined)
22 | 121 to 150 °C | Cc1nc(CN(C)C)n(-c2ccc(Cl)cc2C(=O)c2ccccc2Cl)c1CN1C(=O)c2ccccc2C1=O
23 | 193 to 194 °C | CC1(C)CCC[C@H](N2C(=O)c3ccccc3C2=O)C(=O)N1
24 | 122 °C | CC(=O)N(C)c1scc(C)c1C(=O)c1ccccc1
25 | 150 to 151 °C | CCS(=O)(=O)CCNC(=O)C1=C(C(=O)Nc2ccc(Cl)cc2F)CCCC1
26 | 138 to 140 °C | CC(=O)c1cn(S(=O)(=O)c2ccccc2)c2nccc(OCC3CCCCC3)c12
27 | 105 to 107 °C | Cc1ccnc2c1C(=O)CC(c1cccs1)C2 (centres undefined)
28 | 98 to 100 °C | CCCCn1c(=O)c2c(ncn2S(C)(=O)=O)n(CCCC)c1=O
29 | 270 to 271 °C | N#Cc1ccc2oc3cc(O)ccc3c2c1
30 | 136 to 138 °C | O=C(O)CCC(CCCCNS(=O)(=O)c1ccc(Cl)cc1)CCCn1ccnc1 (centres undefined)
31 | 64 to 64.5 °C | CC(=NN=c1[nH]cccc1Cl)C(F)(F)F
32 | 140 to 143 °C | CC(C)(C)c1ccc(C2(C)CC(=Cc3ccccc3)CC2=O)cc1 (centres undefined)
33 | 156 to 159 °C | O=C(O)Cn1cc(Cc2nc3c(F)c(F)cc(F)c3s2)c2cc(-c3ccccc3)ccc21
34 | 207 to 209 °C | O=C(c1ccncc1)N1CCC(=C2c3ccccc3CCn3ccnc32)CC1
35 | 25 to 26 °C | C=CCOc1ccc(Cl)cc1C(=O)OC

Row | SMILES | melting point
36 | O=S1(=O)c2cccc3cccc(c23)N1CC(Br)CN1CCN(c2ccc(F)cc2)CC1 (centres undefined) | 102 °C
37 | CC12CC(N3CCC(=O)CC3)C(O)CC1CCC1C2CCC2(C)C(O)C(N3CCCCC3)CC12 (centres undefined) | 205 to 206 °C
38 | CNC(=N[N+](=O)[O-])NCCSCc1[nH]cnc1C | 112 to 114 °C
39 | COC(=O)c1ccc2cc(C(=O)c3cc(O)c4c(c3)C(C)(C)CCC4(C)C)ccc2c1 | 222 °C
